Experimental data taken from article PMC6214812, “The mycosporine-like amino acids porphyra-334 and shinorine are antioxidants and direct antagonists of Keap1-Nrf2 binding” (Biochimie, 2018).
Where two headings read alike, the source gives them in different places.

Assays:
[1] = biological target: T1, Kelch-like ECH-associated protein 1 (Keap1) (Homo sapiens, UniProt Q14145); test: FP competition with FITC-(βAla)-DEETGEF-OH; thermal shift (ΔTm […] °C at […]); assay type: binding
T1 construct: Kelch-repeat domain

[2] = biological target: T1, Kelch-like ECH-associated protein 1 (Keap1); test: as above; assay type: binding; remark: listed apart in the source

T1 sequence (Q14145 321-609 limits assumed): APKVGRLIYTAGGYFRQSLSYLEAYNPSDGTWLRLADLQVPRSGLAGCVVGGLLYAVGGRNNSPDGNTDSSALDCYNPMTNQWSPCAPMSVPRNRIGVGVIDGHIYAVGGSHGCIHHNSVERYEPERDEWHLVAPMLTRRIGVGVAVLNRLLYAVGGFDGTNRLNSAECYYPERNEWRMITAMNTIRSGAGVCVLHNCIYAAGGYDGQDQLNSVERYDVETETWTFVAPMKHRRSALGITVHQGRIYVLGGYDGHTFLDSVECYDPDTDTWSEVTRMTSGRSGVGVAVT

Row | IC50 [1] | IC50 [2] | Compound
1 | ~100 µM | – | COC1=C(NCC(=O)O)CC(O)(CO)CC1=NC(C(=O)O)C(C)O (centres unmarked) [porphyra-334]
2 | – | ~100 µM | COC1=C(NCC(=O)O)C[C@@](O)(CO)C/C1=N\[C@@H](CO)C(=O)O [shinorine]
